For 11 compounds, IC50, Ki and CLint scaled results are on record in patent US20120214802A1, “PYRROLIDINE COMPOUNDS WHICH INHIBIT BETA-SECRETASE ACTIVITY AND METHODS OF USE THEREOF” (priority 2009, published 2012).

Series [1] deals with T1, memapsin 2 (Cricetulus griseus, UniProt G3IAK4).
T1 construct: endogenous in cells; host or cells: Chinese hamster ovary cells over-expressing human APP695 (London + Swedish)
In words: Cellular Aβ IC50 determination (Aβ40 sandwich ELISA). Type of series: cell-based, Chinese hamster. The conditions noted are these: CHO cells over-expressing human APP695 with London and Swedish mutations, 24 h, read-out: M2 IC50. The method, then: The potency of compounds against memapsin 2 activity was determined in a cellular assay of Aβ production. […] Chinese hamster ovary cells that over-express human APP695 with the London and Swedish mutations were seeded in multi-well plates at 10% confluency. Compounds are dissolved in DMSO to concentrations near 1 mM, and diluted into culture media to a final concentration near 4 μM (final 0.4% DMSO). Compounds were diluted serially and applied to cells in multi-well plates 48 h after seeding. Incubation was continued in 5% CO2 at 37° C. for 24 h. Aliquots were removed and assayed for […] using a sandwich ELISA (BioSource International). Amount of Aβ40 over the range of concentration of compounds, relative to control incubations, were fit to a 4-parameter IC50 model.
On the technique in general: An ELISA detects its analyte on a solid surface through an enzyme-linked reagent.

In series [2] the target is memapsin 2 (Homo sapiens, UniProt P56817). As to the kind of experiment: Inhibition of memapsin 2 beta-secretase activity (fluorogenic substrate FS-2). Type of series: biochemical. The conditions noted are these: pH 4, 37° C., read-out: M2 Ki. Summed up:
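Memapsin 2 pre-incubated with compound for 20 min at pH 4, 37° C. Reaction started with fluorogenic substrate FS-2, […], derived from Swedish-variant APP beta-secretase site; inhibition measured from fluorescence.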

In another series the target is T2, CYP3A4 (Homo sapiens, UniProt P08684).
T2 construct: host or cells: human liver microsomes
As to the kind of experiment: CYP3A4 inhibition (midazolam metabolism in human liver microsomes). Type of series: in vitro ADME. The conditions noted are these: substrate midazolam, read-out: CYP 3A4Ki. The method, then: To evaluate the drug-drug interaction potential for compounds, the potency to inhibit the major metabolic cytochrome CYP450 isoform 3A4 was assessed. The inhibition constant Ki was determined for inhibition of the metabolism of midazolam, a CYP3A4 substrate.
CYP3A4 Ki assays were performed following a recently published protocol with slight modifications (Di, L., Kerns, E. H., Li, S. Q., and Carter, G. T. (2007) Comparison of cytochrome P450 inhibition assays for drug discovery using human liver microsomes with LC-MS, rhCYP450 isozymes with fluorescence, and double cocktail with LC-MS. International Journal of Pharmaceutics 335: 1-11). The P450 inhibition assay was performed in 96-well plates at 37.2° C. in a shaking incubator. The compounds were diluted from 5 mM stocks in 100% DMSO and incubated at seven final concentrations from 0.078 to 10 μM (0.1% DMSO in each final incubation), with human liver microsomes (HLM) at a final protein concentration of 0.1 mg/mL protein and a substrate concentration ranging from 1.25 to 10 μM.
The assay was standardized for both phosphate buffer (100 mM, pH 7.4) and the NADPH regenerating system (MgCl2, 3.3 mM; G6P, 3.3 mM; G6PD, 1 U/ml; NADP+, 1.3 mM). Eight replicate control samples (0.1% DMSO, no compound) were prepared. Assays (200 μL) were set up by mixing HLM+substrate stock, 10 μL of test article in 2% DMSO, and the substrate before initiating the reaction with the addition of the regenerating system mixture. Reactions were quenched following incubation for 20, 30 and 40 minutes as described following.
After incubation for the specified time in a humidified shaking incubator, 20 μL of the reaction mixture was removed and the reactions were terminated by adding 200 μL of cold acetonitrile. Samples were centrifuged at 1000×g for 15 minutes in Solvinert filter plate. The receptor plate was dried via speed vacuum at 40° C. The sample was reconstituted with a reconstitution buffer composed of 10% acetonitrile, 10% DMSO, 80% H2O with an internal standard added at a concentration of 100 ng/ml. MS-Analysis was completed using LC-MS/MS. Formation of 1′-hydroxymidazolam was measured by monitoring a specific SRM (342>203) transition for the CYP3A4 metabolite.
Data were expressed as the relative quantity of midazolam metabolite relative to control incubations. Initial velocities were obtained by multiplying the relative quantity by the initial substrate concentration and dividing by the incubation duration. Data were transformed to inverse of inivital velocity and expressed vs. inhibitor concentration [I] for determination of Ki by the Dixon method (Dixon, M. (1953) Biochemical Journal 55: 170-171) using where intercept [I]=−Ki was determined at multiple substrate concentrations.
On the technique in general: Microsomes from liver hold many membrane-bound enzymes, among them those of drug oxidation.

Series [3] is described as follows: Hepatic intrinsic clearance in liver microsomes. The class given is in vitro ADME. The conditions noted are these: human, pH 7.4, human liver microsomes, in vitro clearance, read-out: HLM CL. The method, then: To 500 μl of 200 mM Na^+K^+phosphate buffer (pH 7.4), 100 μl of 1 mM EDTA solution was added followed by 100 μl of 2 mg protein/ml human liver microsomes. A 10 μl aliquot of test compound (20 mM stock in 50% acetonitrile) was diluted further with 40 μl of H2O (total assay volume […]. Assay mixture is incubated for 5 minutes at 37° C. The assay was initiated by addition of 250 μl of 4 mM NADPH solution. Incubation was continued at 37° C. Separate reaction mixtures were prepared for 0, 5, 10, 20, and 30 min durations. Individual reactions were halted by addition of 150 μl of 100% acetonitrile. Internal standard (10 μl of 100 ng/ml diazepam solution) was added. Concentration of the test compound in each separate reaction was measured using LC/MS/MS and a standard curve for the test compound according to standard procedures.
The hepatic intrinsic clearance in liver microsome was determined by the following procedure described by Davies and Morris (Davies, B. and Morris, T. (19930) Physiological parameters in laboratory animals and humans. Pharm Res. 10:1093-1095) detailing the relationship of in vitro clearance to physiological parameters in animals and human subjects.
The amount of compound remaining at each time point was expressed relative to the amount present in the initial (0 min) incubation. The relationship of relative amount vs. time was used to determine the half life of the compound in the microsome assay. The concentration independent rate constant, k1, was determined from rectangular hyperbolic fit:
where T is time (in minutes), from the relationship of relative amount vs. time. Alternatively, k1 was determined from a transform of the equation, where
Conversion to in vivo clearance was obtained from the relation (Davies and Morris, 1993):
where v=velocity of metabolism, [S] is the concentration of the compound, and volumes are expressed in mL.

In general, IC50 refers to the midpoint of a concentration-inhibition curve.

Each structure is given as a SMILES string.

T1 sequence (G3IAK4 22-501): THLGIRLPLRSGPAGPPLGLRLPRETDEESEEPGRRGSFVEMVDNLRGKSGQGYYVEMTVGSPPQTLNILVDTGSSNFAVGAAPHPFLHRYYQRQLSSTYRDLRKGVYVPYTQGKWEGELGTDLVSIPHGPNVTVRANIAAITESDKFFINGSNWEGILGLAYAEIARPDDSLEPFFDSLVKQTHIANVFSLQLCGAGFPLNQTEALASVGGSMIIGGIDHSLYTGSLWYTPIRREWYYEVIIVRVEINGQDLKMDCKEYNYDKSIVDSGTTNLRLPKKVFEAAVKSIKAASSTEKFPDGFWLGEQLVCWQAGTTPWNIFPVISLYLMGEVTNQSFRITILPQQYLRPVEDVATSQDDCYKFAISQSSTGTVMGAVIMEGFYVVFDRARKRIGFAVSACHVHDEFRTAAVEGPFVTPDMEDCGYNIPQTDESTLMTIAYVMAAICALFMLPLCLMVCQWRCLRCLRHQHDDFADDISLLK
T2 sequence (P08684 whole entry): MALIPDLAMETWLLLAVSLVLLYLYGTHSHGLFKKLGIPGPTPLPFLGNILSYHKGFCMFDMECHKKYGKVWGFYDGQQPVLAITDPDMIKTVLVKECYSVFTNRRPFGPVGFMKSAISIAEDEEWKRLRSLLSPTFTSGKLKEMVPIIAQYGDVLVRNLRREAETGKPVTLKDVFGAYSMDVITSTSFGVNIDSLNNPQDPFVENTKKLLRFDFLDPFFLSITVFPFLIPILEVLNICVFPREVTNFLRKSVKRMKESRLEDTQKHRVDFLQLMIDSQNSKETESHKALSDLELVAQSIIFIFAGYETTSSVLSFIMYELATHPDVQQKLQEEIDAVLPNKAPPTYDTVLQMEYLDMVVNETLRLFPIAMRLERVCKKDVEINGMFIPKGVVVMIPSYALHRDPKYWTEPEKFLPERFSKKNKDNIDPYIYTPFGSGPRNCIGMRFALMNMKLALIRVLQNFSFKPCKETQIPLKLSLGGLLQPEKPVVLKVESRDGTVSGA
Chain of memapsin 2 (Homo sapiens, UniProt P56817) (P56817 46-501): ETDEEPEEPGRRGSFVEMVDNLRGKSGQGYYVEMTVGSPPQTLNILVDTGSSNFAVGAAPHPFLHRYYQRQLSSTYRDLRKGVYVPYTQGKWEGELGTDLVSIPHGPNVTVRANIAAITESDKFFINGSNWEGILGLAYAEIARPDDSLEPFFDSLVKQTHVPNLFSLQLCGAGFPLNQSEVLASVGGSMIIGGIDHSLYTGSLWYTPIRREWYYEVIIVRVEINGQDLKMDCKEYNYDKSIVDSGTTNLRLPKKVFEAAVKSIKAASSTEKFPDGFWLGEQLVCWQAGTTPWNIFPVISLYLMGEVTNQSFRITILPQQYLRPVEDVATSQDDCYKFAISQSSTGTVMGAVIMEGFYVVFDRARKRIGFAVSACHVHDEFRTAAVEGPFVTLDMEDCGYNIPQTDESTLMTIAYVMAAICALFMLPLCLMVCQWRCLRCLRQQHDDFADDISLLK

As for `Cc1cc(C(=O)N[C@@H](Cc2ccccc2)[C@H](O)[C@H]2CCCN2)cc(C(=O)N2CCC[C@@H]2c2nc(C)co2)c1` [1-8, N-((1R,2S)-1-hydroxy-3-phenyl-1-((R)-pyrrolidin-2-yl)propan-2-yl)-3-methyl-5-((R)-2-(4-methyloxazol-2-yl)pyrrolidine-1-carbonyl)benzamide], the half-inhibitory concentration (IC50) at memapsin 2 [1] is above 1000 nM. The Ki was 250 to 750 nM at memapsin 2 [2] and above 10000 nM on CYP3A4. Besides, the CLint scaled at 200 μM in series [3] is below 400 mL/min/kg.
For `Cc1csc(CN(C)C(=O)c2cccc(C(=O)N[C@@H](Cc3ccccc3)[C@H](O)[C@H]3C[C@@H](OCc4ccccc4)CN3)c2)n1` [1-9, N1-((1R,2S)-1-((2R,4R)-4-(benzyloxy)pyrrolidin-2-yl)-1-hydroxy-3-phenylpropan-2-yl)-N3-methyl-N3-((4-methylthiazol-2-yl)methyl)isophthalamide], in that order: below 500 nM, below 250 nM, 1000 to 5000 nM and below 400 mL/min/kg.
For `C[C@@H](NC(=O)c1cc(C(=O)N[C@@H](Cc2ccccc2)[C@H](O)[C@H]2CCCN2)cc(N(C)S(C)(=O)=O)c1)c1ccccc1` [1-11, N1-((1R,2S)-1-hydroxy-3-phenyl-1-((R)-pyrrolidin-2-yl)propan-2-yl)-5-(N-methylmethylsulfonamido)-N3-((R)-1-phenylethyl)isophthalamide], in that order: below 500 nM, below 250 nM, above 10000 nM and below 400 mL/min/kg.
Consider `Cc1csc(CN(C)C(=O)c2cc(C(=O)N[C@@H](Cc3ccccc3)[C@H](O)[C@H]3CCCN3)cc(-c3cnco3)c2)n1` [1-12, N1-((1R,2S)-1-hydroxy-3-phenyl-1-((R)-pyrrolidin-2-yl)propan-2-yl)-N3-methyl-N3-((4-methylthiazol-2-yl)methyl)-5-(oxazol-5-yl)isophthalamide], for which the IC50 at memapsin 2 [1] was above 1000 nM. In addition, the Ki at memapsin 2 [2] was below 250 nM. Also, the CLint scaled at 200 μM in series [3] was below 400 mL/min/kg.
In the case of `Cc1csc(CN(C)C(=O)c2cc(C(=O)N[C@@H](Cc3ccccc3)[C@H](O)[C@H]3CCCN3)cc(-n3cccc3)c2)n1` [1-13, N1-((1R,2S)-1-hydroxy-3-phenyl-1-((R)-pyrrolidin-2-yl)propan-2-yl)-N3-methyl-N3-((4-methylthiazol-2-yl)methyl)-5-(1H-pyrrol-1-yl)isophthalamide], the 50% inhibitory concentration (IC50) on memapsin 2 [1] is 500 to 1000 nM. Moreover, the Ki was below 250 nM at memapsin 2 [2] and 5000 to 10000 nM at CYP3A4. Further, the CLint scaled at 200 μM in series [3] was below 400 mL/min/kg.
In the case of `Cc1csc([C@H]2CCCN2C(=O)c2cc(C(=O)N[C@@H](Cc3ccccc3)[C@H](O)[C@H]3CCCN3)cc(C(F)F)c2)n1` [1-14, 3-(difluoromethyl)-N-((1R,2S)-1-hydroxy-3-phenyl-1-((R)-pyrrolidin-2-yl)propan-2-yl)-5-((R)-2-(4-methylthiazol-2-yl)pyrrolidine-1-carbonyl)benzamide], the 50% inhibitory concentration (IC50) at memapsin 2 [1] is below 500 nM. Besides, the Ki at memapsin 2 [2] is below 250 nM; at CYP3A4, 1000 to 5000 nM. For the same compound, in series [3], the CLint scaled at 200 μM was below 400 mL/min/kg.
Consider `Cc1csc(CN(C)C(=O)c2cc(C(=O)N[C@@H](Cc3ccccc3)[C@H](O)[C@H]3CCCN3)cc(-c3ncco3)c2)n1` [1-15, N1-((1R,2S)-1-hydroxy-3-phenyl-1-((R)-pyrrolidin-2-yl)propan-2-yl)-N3-methyl-N3-((4-methylthiazol-2-yl)methyl)-5-(oxazol-2-yl)isophthalamide], for which, at memapsin 2 [1], the IC50 was below 500 nM. Further, the Ki was below 250 nM on memapsin 2 [2] and 5000 to 10000 nM at CYP3A4. Moreover, the CLint scaled at 200 μM in series [3] was below 400 mL/min/kg.
Consider `Cc1csc([C@H]2CCCN2C(=O)c2cc(C(=O)N[C@@H](Cc3ccccc3)[C@H](O)[C@H]3CCCN3)cc(N3CCCC3=O)c2)n1` [1-39, N-((1R,2S)-1-hydroxy-3-phenyl-1-((R)-pyrrolidin-2-yl)propan-2-yl)-3-((R)-2-(4-methylthiazol-2-yl)pyrrolidine-1-carbonyl)-5-(2-oxopyrrolidin-1-yl)benzamide], for which the IC50 at memapsin 2 [1] was below 500 nM. For the same compound, on memapsin 2 [2], the Ki is below 250 nM. Moreover, in series [3], the CLint scaled at 200 μM is below 400 mL/min/kg.
For `Cc1csc([C@H]2CCCN2C(=O)c2cncc(C(=O)N[C@@H](Cc3ccccc3)[C@H](O)CNCc3cc(Cl)nc(N(C)C)c3)c2)n1` [2-1, N-((2S,3R)-4-((2-chloro-6-(dimethylamino)pyridin-4-yl)methylamino)-3-hydroxy-1-phenylbutan-2-yl)-5-((R)-2-(4-methylthiazol-2-yl)pyrrolidine-1-carbonyl)nicotinamide, reference compound], in that order: below 500 nM, below 250 nM and above 700 mL/min/kg.
Consider `C=C(C)c1cccc(CNC[C@@H](O)[C@H](Cc2ccccc2)NC(=O)c2cccc(C(=O)N3CCC[C@@H]3c3nc(C)co3)c2)c1` [2-6, N-((2S,3R)-3-hydroxy-1-phenyl-4-(3-(prop-1-en-2-yl)benzylamino)butan-2-yl)-3-((R)-2-(4-methyloxazol-2-yl)pyrrolidine-1-carbonyl)benzamide, reference compound], for which, at memapsin 2 [1], the IC50 was below 500 nM. For the same compound, the Ki on memapsin 2 [2] is below 250 nM. The CLint scaled at 200 μM in series [3] is above 700 mL/min/kg.
On to `Cc1cc(C(=O)N[C@@H](Cc2ccccc2)[C@H](O)CNCc2cncc(C(C)(C)C)c2)cc(C(=O)N2CCC[C@@H]2c2nc(C)co2)c1` [2-11, N-((2S,3R)-4-((5-tert-butylpyridin-3-yl)methylamino)-3-hydroxy-1-phenylbutan-2-yl)-3-methyl-5-((R)-2-(4-methyloxazol-2-yl)pyrrolidine-1-carbonyl)benzamide, reference compound], for which the concentration for half-maximal inhibition (IC50) at memapsin 2 [1] is below 500 nM. The Ki on memapsin 2 [2] is below 250 nM; on CYP3A4, below 1000 nM.
